Measurements published in ChEMBL document CHEMBL5724558, “Image-based profiling of drug vulnerabilities in CRC organoids” (2024).
Where “and” joins values, the source holds several entries; their conditions need not be identical. Identical values can stand only once.

Legend:
Format in all cases: functional, Homo sapiens
Set-up in all cases: dose or concentration left out as unconfirmed
Colon cancer organoid [1] = assay: (§1) Image-based profiling of donated chemical probes and chemogenomic kinase set in O21 CRC organoid. Image analysis is performed on the sum area metric, and the data were normalized to the DMSO control. After imaging the organoid viability is measured using the OneGloEX Luciferase Assay System. The normalized viability data and sum area are reported.
Colon cancer organoid [2] = assay: as §1, with “O09” for “O21”
Colon cancer organoid [3] = assay: as §1, with “O06” for “O21”

Structure (SMILES)	Cell Viability (Colon cancer organoid [1]; Replication number 1)	Cell Viability (Colon cancer organoid [1]; Replication number 2)	Cell Viability (Colon cancer organoid [2]; Replication number 1)	Cell Viability (Colon cancer organoid [2]; Replication number 2)	Cell Viability (Colon cancer organoid [3]; Replication number 1)	Cell Viability (Colon cancer organoid [3]; Replication number 2)
COc1cc(C(=O)O)ncc1C#Cc1ccccc1NS(=O)(=O)c1cccc2c(N(C)C)ccnc12 [MSC-0516]	88.3697% and 90.0327%	92.8274% and 92.794%	106.133% and 95.2857%	130.736% and 112.411%	100.098% and 102.024%	96.9075% and 85.7761%
Cc1ccc(NC(=O)Nc2cc(C(F)(F)F)ccc2F)cc1Nc1ccc2c(c1)NC(=O)/C2=C\c1ccc[nH]1	103.098% and 128.078%	94.098% and 129.212%	128.92% and 93.5433%	146.444% and 106.907%	171.109% and 157.262%	144.83% and 120.438%
Clc1cccc(-c2nnnn2Cc2cccnc2)c1Cl	103.002% and 95.4722%	106.874% and 109.184%	192.597% and 128.776%	120.929% and 99.0142%	110.934% and 130.913%	90.04% and 81.9662%
CCCOc1ccn2c(C(C)=O)cc(-c3cccc(OC)c3)c2c1	114.752% and 106.401%	123.226% and 102.029%	257.79% and 103.4%	158.474% and 115.458%	185.69% and 133.611%	217.677% and 137.175%
COc1cc(-c2cn([C@H]3CCc4ccccc4N(CC(F)(F)F)C3=O)nn2)ccc1-n1ccc(C)n1	95.5395% and 92.5614%	105.607% and 89.2857%	31.4153% and 64.0297%	67.1931% and 101.059%	93.8708% and 97.1897%	92.3722% and 127.214%
CC(C)Oc1ccc(-c2c[nH]cc2CN(C)CCN)cc1	91.7863% and 65.8393%	93.2232% and 70.8831%	64.4727% and 62.1329%	85.7978% and 86.9496%	21.9267% and 37.2081%	18.5621% and 35.8471%
CNC(=O)c1ccc(Nc2ncc(C(F)(F)F)c(NCc3nccnc3N(C)S(C)(=O)=O)n2)cc1 [DEFACTINIB]	89.1869% and 86.74%	98.5669% and 117.347%	29.7376% and 36.5543%	24.312% and 22.1979%	124.45% and 120.141%	102.609% and 90.0207%
COc1ccccc1C(=O)Nc1cc2c(cc1N1CCNCC1C)n(C)c(=O)n2C (stereo unspecified)	113.606% and 138.145%	93.8896% and 107.936%	86.1318% and 106.414%	94.809% and 101.774%	207.592% and 157.772%	161.771% and 130.961%
CN(C)C(=O)Cn1cc(-c2ccc(-c3cncc4ccccc34)cc2)cn1	132.258% and 129.895%	113.21% and 111.119%	314.332% and 120.679%	170.131% and 105.821%	73.9778% and 127.973%	75.2678% and 99.5373%
Nc1nc(NCc2ccccc2)nc(-c2cccc(CO)c2)n1 [ZINC32547799]	95.0079% and 87.3045%	101.984% and 101.971%	98.3992% and 98.4744%	101.098% and 100.714%	89.5578% and 102.51%	72.3824% and 71.8405%
CNc1nc(Nc2cnn([C@H]3CCN(C4COC4)C[C@@H]3F)c2Cl)ncc1C(F)(F)F	107.524% and 121.533%	104.61% and 94.4225%	95.686% and 93.751%	102.903% and 81.5252%	126.64% and 127.973%	90.3478% and 106.324%
Cc1c(C(=O)Nc2ccc(Oc3ccnc4[nH]cc(-c5ccccc5)c34)c(F)c2)c(=O)n(-c2ccc(F)cc2)n1C	102.708% and 102.021%	105.094% and 114.574%	202.234% and 105.47%	155.309% and 109.6%	83.9357% and 96.3695%	67.8056% and 89.2545%
C[C@H](c1ccnc(Nc2nc3ccc(-c4cc(N(C)C)ncn4)cc3[nH]2)c1)N1CCN(C(=O)CC(F)(F)F)CC1 [BAY-985]	79.4083% and 115.847%	85.0487% and 108.163%	71.2214% and 105.601%	101.014% and 89.9598%	90.8191% and 114.52%	122.693% and 118.685%
C[C@H]1CC(=O)Nc2cc(C(=O)NCCC3CC3)ccc2N1C(=O)N1CC2CC2C1 (stereo partly specified)	104.914% and 116.982%	77.8753% and 111.158%	82.587% and 82.5348%	120.178% and 115.743%	181.689% and 143.275%	157.26% and 132.873%
C[C@]1(O)C[C@@H](c2nc(-c3ccc4ccc(-c5ccccc5)nc4c3)c3c(N)nccn32)C1 [LINSITINIB]	65.7988% and 93.6585%	45.8203% and 78.3015%	48.5771% and 41.3901%	29.8323% and 45.6217%	20.2503% and 50.5216%	16.9529% and 40.5141%
Cc1sc2c(c1C)C(c1ccc(Cl)cc1)=N[C@@H](CC(=O)OC(C)(C)C)c1nnc(C)n1-2	79.5251% and 85.2384%	67.4511% and 80.5489%	38.4274% and 33.3849%	47.2906% and 27.9949%	19.6589% and 56.2953%	20.5614% and 51.6198%
Cc1c(NC(=O)COc2ccc(Cl)cc2C(=O)c2cc(F)cc(C(F)(F)F)c2)ccc(C(=O)O)c1F [BI 2540]	96.7046% and 115.044%	105.62% and 95.2087%	121.956% and 104.432%	133.179% and 113.341%	58.8741% and 96.3504%	87.0416% and 104.656%
CC#CC(=O)N1CCC[C@H]1c1nc(-c2ccc(C(=O)Nc3ccccn3)cc2)c2c(N)nccn12 [ACALABRUTINIB]	90.1303% and 116.516%	93.0581% and 134.149%	72.6716% and 83.0294%	131.144% and 94.2129%	108.483% and 104.159%	68.1537% and 91.7224%
CN(C)C(=O)c1ccc(-c2cc(C(=O)N[C@@H]3CCc4ccccc43)no2)cc1O	107.545% and 128.739%	101.745% and 90.2148%	44.4352% and 76.507%	55.2789% and 66.994%	75.5057% and 77.557%	96.6364% and 86.0329%
CCCCNNC(=O)c1ccc(Br)cc1	97.5198% and 109.34%	111.608% and 95.0477%	73.4793% and 89.7218%	77.458% and 82.3883%	141.347% and 94.2282%	136.66% and 100.85%
Cc1nccc(COC(=O)N2C[C@@H]3[C@@H](CNC(=O)c4ccc5[nH]nnc5c4)[C@@H]3C2)n1 [BI 3017]	96.5552% and 87.3221%	97.9165% and 92.8571%	118.304% and 89.116%	133.367% and 124.133%	85.9577% and 77.5176%	101.815% and 101.392%
C=CC(=O)Nc1ccc2[nH]c(=O)n(C3CCN(Cc4ccc(-c5ccc6c(c5)NC(=O)CO6)cc4)CC3)c2c1 [RL2578]	100.847% and 118.952%	88.0648% and 119.816%	79.7893% and 107.853%	131.51% and 111.42%	82.8871% and 90.6073%	145.126% and 114.128%
CCOC(=O)CCNc1cc(N2CCc3ccccc3CC2)nc(-c2cccnc2)n1	67.1414% and 86.4141%	103.603% and 97.7327%	137.493% and 102.473%	150.843% and 118.309%	133.48% and 94.953%	206.72% and 136.936%
CCCOc1ccn2c(C(C)=O)cc(-c3ccccc3S(C)(=O)=O)c2c1	106.031% and 126.388%	99.7688% and 110.084%	82.358% and 82.5348%	234.066% and 124.865%	138.616% and 118.389%	149.88% and 120.685%
CNCc1ccccc1-c1csc([C@@H](C)Nc2nc(C)nc3cc(OC)c(OC)cc23)c1 [BAY-293]	45.2566% and 84.9935%	50.5698% and 76.0204%	109.186% and 103.451%	63.3306% and 79.153%		9.059% and 19.7098%
CCc1ccccc1C(=O)Nc1n[nH]c2c(C)c(F)c(C3C(C#N)=C(C)N(C)C(C)=C3C#N)cc12 [BAY-3827]	104.538% and 100.129%	99.5085% and 100.51%	62.8379% and 77.8869%	39.4727% and 62.2125%	111.052% and 125.293%	118.254% and 98.7859%
Clc1cc2c(NC3CCCC3)nnc(-c3ccncc3)c2cc1Cl	113.128% and 118.158%	77.3442% and 110.621%	139.675% and 109.428%	148.163% and 121.159%	62.2011% and 99.302%	123.043% and 92.9634%
